Source: article PMC9706920, “Aryloxypropanolamine targets amyloid aggregates and reverses Alzheimer-like phenotypes in Alzheimer mouse models” (Alzheimer's Research & Therapy, 2022)

Assays:
[1] = Microsomal stability, human; assay type: in vitro ADME; conditions: 1 μM, 30 min, 37°C
Description: To evaluate the rate of drug metabolism, we tested YIAD002 stability in liver microsomes of human, rat, and mouse. Microsomal concentration was 0.5 mg/ml in 0.1 M phosphate buffer (pH 7.4). 1 μM of YIAD002 was added to microsome solutions and was prewarmed at 37°C for 5 min. NADPH-regenerating solution was added to microsomes and incubated at 37°C for 30 min. At the end of incubation, acetonitrile with chlorpropamide was added to stop reactions and microsomal solutions were centrifuged at 14,000 rpm at 4°C for 5 min. For LC-MS/MS analysis, supernatants were injected on a Kinetex C18 column (2.1 × 100 mm, 2.6 μm particle size, Phenomenex, USA). The composition of the mobile phase was 0.1% formic acid in water (A) and 0.1% formic acid in acetonitrile (B).

[2] = BBB-PAMPA; assay type: in vitro ADME; conditions: 50 μM
Description: Commercially available Double-Sink PAMPA (Pion® Double sink) assay was performed using a two compartment 96-well microtiter plate and protocols specified by the manufacturer. […] Stock solutions of controls and YIAD002 were dissolved in DMSO (10 mM) and subsequently diluted to 200-fold in pION buffer (pH 7.4) to 50 μM. The donor plate of the PAMPA sandwich was loaded with 50 μM solutions, and after wetting the artificial membrane with BBB lipid solution, the acceptor plate was loaded with acceptor sink buffer. Then, the acceptor plate was placed on the donor plate and incubated at 25°C for 4 h. Compound concentration in the reference, donor, and acceptor plates were measured on a UV plate.

[3] = target: T1, CYP 3A4 (Homo sapiens, UniProt P08684); assay: CYP450 inhibition assay, 3A4; assay type: in vitro ADME; conditions: YIAD002 10 μM, human liver microsomes; weak or no inhibition; read-out: CYP 3A4 inhibition, IC50 (inhibition criteria)
T1 construct: contained human liver microsomes (0.25 mg/ml); from tissue; host or cells: human liver microsomes
T1 sequence (P08684 whole entry): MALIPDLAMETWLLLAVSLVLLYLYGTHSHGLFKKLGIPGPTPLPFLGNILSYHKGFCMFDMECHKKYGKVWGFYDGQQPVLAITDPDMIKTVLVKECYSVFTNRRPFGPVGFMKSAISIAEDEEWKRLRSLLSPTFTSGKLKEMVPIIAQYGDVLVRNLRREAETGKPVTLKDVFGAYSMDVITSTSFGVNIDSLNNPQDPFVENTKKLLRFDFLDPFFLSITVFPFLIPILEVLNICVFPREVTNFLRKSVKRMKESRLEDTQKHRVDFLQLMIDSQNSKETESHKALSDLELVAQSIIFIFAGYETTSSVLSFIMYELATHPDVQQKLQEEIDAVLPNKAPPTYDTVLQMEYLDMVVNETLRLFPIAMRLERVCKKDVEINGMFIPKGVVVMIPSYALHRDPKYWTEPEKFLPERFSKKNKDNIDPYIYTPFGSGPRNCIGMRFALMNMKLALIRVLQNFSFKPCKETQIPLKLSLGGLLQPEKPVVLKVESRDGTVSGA
Description: Incubation mixtures for Cytochrome P450s (CYPs) inhibition assay contained human liver microsomes (0.25 mg/ml), 0.1 M phosphate buffer (pH 7.4), 10 μM of YIAD002, and an enzyme substrate cocktail (phenacetin 50 μM, diclofenac 10 μM, S-mephenytoin 100 μM, dextromethorphan 5 μM, and midazolam 2.5 μM). The mixture was pre-incubated at 37°C for 5 min and 1 mM NAPDH was added to initiate reactions. After 15 min of incubation, acetonitrile with terfenadine was added to stop reactions and microsomal solutions were centrifuged at 14,000 rpm at 4°C for 5 min. For LC-MS/MS analysis, supernatants were injected on a Kinetex C18 column (2.1 × 100 mm, 2.6 μm particle size, Phenomenex, USA). The composition of the mobile phase was 0.1% formic acid in water (A) and 0.1% formic acid in acetonitrile (B).

[4] = tested on: 5XFAD mice; assay: Dot blot assay (6E10, A11) of soluble brain lysates of 5XFAD mice, incl. MWCO filtration; assay type: in vivo, mouse; conditions: 50 mg/kg/day, 5 weeks; for Total Aβ (6E10) in cortical lysates after GdnHCl denaturation and 100 kDa MWCO filtration: APP removed
Description: To test the in vivo efficacy of YIAD001 and YIAD002, female 5XFAD mice (n = 25) and female wildtype mice (n = 7) were assessed at the age of 4.5 months. YIAD compounds were dissolved in DMSO and diluted in drinking water to a final concentration of 50 mg/kg/day (5% DMSO, 5% Tween) for oral administration. The three compounds, YIAD001, YIAD002, and YIAD003, were freely administered via drinking water to 4.5-month-old 5XFAD mice (n = 6 for each group) for 5 weeks. As a control, 5% DMSO, 5% Tween in drinking water was provided ad libitum to littermate 5XFAD mice (n = 7) and wildtype mice (n = 7) for 5 weeks.
After the administration period, the mice were deeply anaesthetized with 4% avertin through intraperitoneal injection and transcardially perfused with 0.9% saline. Subsequently, the mice were sacrificed for brain excision. Each collected brain was divided through the mid-sagittal section; the hippocampal and cortical regions were dissected from one half and stored at −80°C for subsequent brain lysates, while the other half was immersed in 4% paraformaldehyde (pH 7.4) for 24 h and 30% sucrose for 48 h at 4°C and subsequently deep-froze at −80°C for immunohistochemistry.
Isolated cortical and hippocampal tissue samples were homogenized in ice-cold RIPA buffer with protease inhibitor cocktail and phosphatase inhibitor cocktail. Lysed tissues were incubated in ice for 30 min and subsequently centrifuged at 14,000 rpm at 4°C for 30 min. The supernatants of the brain lysates were collected and soluble protein concentrations were quantified with the Pierce BCA protein assay kit (Thermo Fisher Scientific, USA).
To analyze total and oligomeric amyloid levels, protein samples (12 μg in 2 μL) and prepared in vitro disaggregation assay samples (2 μL) were directly blotted on nitrocellulose membranes. After blocking with 5% skim milk in TBS-T, the membranes were probed with anti-6E10 antibody (1:1,000, Biolegend 803003) and anti-A11 antibody (1:2000, Invitrogen AHB0052) at 4°C overnight. HRP-conjugated goat anti-mouse antibody (1:10,000, Bethyl Laboratories A90-116P) and anti-rabbit secondary antibody (1:10,000, Bethyl Laboratories A120-101P) were used for 6E10 and A11, respectively. Proteins were detected using an ECL kit (Thermo Fisher Scientific, USA). Membranes were washed with TBS-T in between steps, three times for 10 min.
To exclusively investigate soluble Aβ levels in cortical lysates, guanidinium hydrochloride (GdnHCl) in a lysis buffer (5.0 M GdnHCl, 50 mM Tris-HCl, pH 8.0) was utilized to solubilize and denature endogenous Aβ aggregates prior to filtration. The homogenates were incubated with agitation for 3 h at RT. The incubated samples were then quantified to prepare protein samples (10 μg in 4 μL) and were filtered through a 100 kDa molecular weight cut-off (MWCO) filter, centrifuged at 14,000 rpm at RT for 30 min, to remove APP. For subsequent dot blot assay, total […] of the filtrate was spotted onto a nitrocellulose membrane and probed with anti-6E10 antibody (1:1000, Biolegend 803003).

[5] = target: α-synuclein aggregates (Homo sapiens, UniProt P37840); assay: ThT dissociation assay against α-synuclein aggregation; assay type: biochemical; conditions: α-synuclein 35 μM pre-aggregated 3 days, compound additional 3 days
Description: [picture] Figure S5. ThT dissocation assay against α-synuclein aggregation. Dissociative effects of YIAD001 and YIAD002 against α-synuclein aggregation were evaluated using ThT fluorescence. α-synuclein (35 μM) was pre-aggregated for 3 days. YIAD001 and YIAD002 were added to and co-incubated with pre-aggregated samples for an additional 3 days. Aggregation time for α-synuclein is indicated as ‘+’ for 3 days and ‘++’ for 6 days. All fluorescence intensities were normalized and statistically compared to α-synuclein-only 3 days (+) control (100%). One-way analysis of variance followed by Bonferroni’s post-hoc comparisons tests were performed in all statistical analyses (****P < 0.0001). Data are presented as mean ± SEM. Abbreviations: Aggr. = Aggregation, Cpd. = Compound.

SMILES | Remaining compound in human microsomes [1] [%] | BBB permeability class ([2]; classification ranges ref 25) | Papp at 4 h, 50 μM ([2]; PAMPA, pH 7.4, 25°C, 4 h, read-out: Effective permeability coefficient Pe) [×10⁻⁶ cm/s] | IC50 [3] [µM] | Total Aβ (6E10) in cortical lysates after GdnHCl denaturation and 100 kDa MWCO filtration [4] | 6E10-detected total Aβ, cortical lysates ([4]; soluble fraction) | 6E10-detected total Aβ, hippocampus ([4]; soluble fraction) | A11-detected oligomer levels, cortical lysates ([4]; soluble fraction) | Oligomeric Aβ content (A11), hippocampus ([4]; soluble fraction) | Interaction with α-synuclein aggregates (ThT dissociation) [5]
CCC(C)(C)c1ccc(OCC(O)CN2CCCC2)c(C(C)(C)CC)c1.Cl (centres unmarked) [YIAD002, 1-(3-(2,4-Di-tert-pentylphenoxy)-2-hydroxypropyl)pyrrolidin-1-ium chloride] | 55.5 | high BBB permeability | 36.8 | > 10 | reduction of Aβ | significantly reduced | not significantly changed | trend of reduction | significantly reduced | did not interact with α-synuclein aggregates
CCC(C)(C)c1ccc(OCC(O)CN2CCOCC2)c(C(C)(C)CC)c1.Cl (centres unmarked) [YIAD001, 4-(3-(2,4-Di-tert-pentylphenoxy)-2-hydroxypropyl)morpholin-4-ium chloride] |  |  |  |  | reduction of Aβ | significantly reduced | not significantly changed | trend of reduction |  | 
